Laboratory results reported in patent publication US11999805B1, “Peptide inhibitors of CRISPR-Cas9” (priority 2020, dated 2024).
pIC50: −log10 of the molar value. “Also recorded” adds a separate entry of the source. Where two headings read alike, the source gives them in different places. Residues, ends and D or L forms follow the SMILES beside them. No end group written: not given here.

Assays:
SpyCas9 [1] = target: T1, SpyCas9 (Streptococcus pyogenes serotype M1, UniProt Q99ZW2); format: biochemical, S. pyogenes; conditions: for pIC50: read-out: SpyCas9 IC50, FRET cleavage assay, concentration curves, 0.5 μM Cas9, 50 nM DNA substrate
Protocol: (§1) To determine whether synthetic peptides would inhibit Cas9 cleavage activity, 200 peptide sequences were selected for chemical synthesis based on the following criteria: (1) peptides enriched after independent panning on RNP immobilized on both the Monomeric Avidin and NeutrAvidin columns, (2) Higher Boman index (>2.3), the computed potential protein-protein interaction for a given amino-acids sequence (3) a predicted instability index below 50. Theses peptides were screened at 200 μM for inhibition of Cas9 cleavage activity using the recently developed HT FRET-based assay using a dual-quencher substrate with low background and high sensitivity. See Seamon K J, Light Y K, Saada E A, Schoeniger J S, Harmon B. 2018. Versatile High-Throughput Fluorescence Assay for Monitoring Cas9 Activity. Analytical Chemistry 90:6913-6921. This assay specifically measures DNA substrate cleavage, and is able to differentiate between cleavage of a single strand of DNA and cleavage of both DNA strands.
(§2) Reactions (10 μL tubes) were set up in Cas9 reaction buffer (20 mM Tris-HCl, pH 7.5, 100 mM NaCl, 5 mM MgCl2, 0.1 mM EDTA) containing 50 nM annealed DNA substrate, 1.5 μM sgRNA, and 500 nM Cas9 in the wells of a black low volume 384-well plate. The reactions were incubated for 1 hour at ambient temperature; then, 10 μL of 8 M Gdn-HCl was added to quench the reaction before the plates were covered with an aluminum seal and incubated at 80° C. for 10 minutes. The fluorescence was read in a Tecan Infinite M1000 or SPARK plate spectrofluorometer (Tecan).
(§3) The peptides were diluted 2-fold from 200 to 12.5 μM and incubated for 1 hour with 500 nM SpyCas9, gRNA prior to addition of 50 nM FRET DNA substrate for 1 hour. […] Data are the average ±SD of three replicate wells.
(§4) For the 11 original peptides reactions (10 μL) were set up in Cas9 reaction buffer [20 mM Tris-HCl, pH 7.5, 100 mM NaCl, 5 mM MgCl2, 0.1 mM EDTA] containing 50 nM annealed DNA substrate, 1.5 μM sgRNA, and 0.5 μM Cas9 in the wells of a black low volume 384-well plate. The reactions were incubated for 1 hour at ambient temperature with the indicated concentration of peptide; then, 10 μL, of 8 M Guanidine-HCl was added to quench the reaction. The plates were covered with an aluminum seal and incubated at 75° C. for 10 minutes and cooled down to RT before reading.
(§5) The % inhibition was determined by subtracting normalized relative fluorescent value to Cas9 without peptides (% activity) from 100% cleavage activity of CjeCas9, SauCas9, SpyCas9 by FRET assay. Data are the average ±SD of eleven replicate wells from three technical replicates at the indicated concentration of peptides.
(§6) FIGS. 12A, 12B, and 12C show graphs of measurements and fitted curves of concentration dependent inhibition of mutated peptides against Cas9 variants. The inhibition was measured as relative fluorescent value to Cas9 without peptides (% activity) of CjeCas9 (line with squares), SauCas9 (line with diamonds), SpyCas9 (line with triangles) by FRET assay with the indicated concentration of peptides and compared to original peptides (line with circles). Data are the average ±SD of eleven replicate wells from three technical replicates.

SpyCas9 [2] = target: T1, SpyCas9; format: cell-based, S. pyogenes; parameters: host or cells: protein RNP lipofected into A549 reporter cells; conditions: for reduction of SpyCas9 editing (relative % CRISPR editing): A549 GFP reporter cells, 500 ng plasmid 24 h before SpyCas9 RNP, compared to plasmid control; for cell toxicity: A549 reporter cells
Source text: The cell-based reporter assay was generated using an endonuclease surrogate reporter construct expressed in A549 cells. This construct was composed of genes encoding two fluorescent proteins (red fluorescent protein (RFP) and green fluorescent protein (GFP)) linked by the endonuclease targeting sequence. In the absence of endonuclease (e.g. Cas9) expression, the reporter was designed to express the RFP but not GFP as it is placed out of frame. Upon expression of Cas9 with a targeting gRNA, the RNP introduces a double stranded break at the target site upstream of the GFP genes leading to frameshift mutations and expression of GFP (FIG. 7). An AAVS1 protospacer and PAM sequence used for targeting by SpyCas9 RNP is in between the RFP and GFP genes. RNP targeting to the AASV1+PAM sequence in the cell's nucleus results in a DSB and error prone NHEJ will likely cause either of the GFP genes to now become in-frame and induce GFP expression. The expression of GFP is strictly dependent on the presence of nuclease activity from endonucleases that specifically recognizes the target sequence in the reporter construct. A549 reporter cells for SpyCas9 were reverse transfected with 100-500 ng of indicated plasmids using Lipofectamine, the plasmids were at a 1:1 ratio with SpyCas9 RNP. […] After 24 hours the media was changed, and 100-500 ng of SpyCas9 RNP was forward transfected using CRISPRMax (Thermo Fisher).
Editing was assessed at 48 hours and 72 hours post transfection using the CX7 plate imager and/or flow cytometry using an ACCURI C6 flow cytometer (BD BIOSCIENCES) with FCS EXPRESS SOFTWARE (DE NOVO SOFTWARE). Cells were counted as edited if their FL-1 fluorescence was greater than that of the no RNP control. […] Error bars represent ±SD across technical replicates (n=2).

SpyCas9 [3] = format: biochemical, S. pyogenes
Protocol: as §1, §2, §3, §4, §5, §6

SauCas9 [4] = target: T2, SauCas9 (Staphylococcus aureus, UniProt J7RUA5); test: HT FRET-based Cas9 cleavage activity assay, SauCas9; format: biochemical, S. aureus
T2 construct: made in house; host or cells: E. coli BL21(star)DE3
Protocol: (§7) To evaluate the ability of identified peptides to inhibit other Cas9 variants, SauCas9 and CjeCas9 cleavage assays were used to quantitatively measure changes in activity. […] The inhibition was measured as relative fluorescent value to Cas9 without peptides (% activity) of CjeCas9 (Top), SauCas9 (middle), SpyCas9 (bottom) by FRET assay with the indicated concentration of peptides. Data are the average ±SD of eleven replicate wells from three technical replicates.
as §4, §5, §6

CjeCas9 = target: T3, CjeCas9 (Campylobacter jejuni subsp. jejuni serotype O:2, UniProt Q0P897); test: HT FRET-based Cas9 cleavage activity assay, CjeCas9; format: biochemical, C. jejuni
T3 construct: made in house; host or cells: E. coli BL21(star)DE3
Protocol: as §7, §4, §5, §6

SauCas9 [5] = target: T4, SauCas9 (Staphylococcus aureus, UniProt J7RUA5); test: HT FRET-based Cas9 cleavage activity assay, SauCas9; format: biochemical, S. aureus; remark: listed apart in the source
T4 construct: made in house; host or cells: E. coli BL21(star)DE3
T4 sequence (J7RUA5 whole entry, looked up): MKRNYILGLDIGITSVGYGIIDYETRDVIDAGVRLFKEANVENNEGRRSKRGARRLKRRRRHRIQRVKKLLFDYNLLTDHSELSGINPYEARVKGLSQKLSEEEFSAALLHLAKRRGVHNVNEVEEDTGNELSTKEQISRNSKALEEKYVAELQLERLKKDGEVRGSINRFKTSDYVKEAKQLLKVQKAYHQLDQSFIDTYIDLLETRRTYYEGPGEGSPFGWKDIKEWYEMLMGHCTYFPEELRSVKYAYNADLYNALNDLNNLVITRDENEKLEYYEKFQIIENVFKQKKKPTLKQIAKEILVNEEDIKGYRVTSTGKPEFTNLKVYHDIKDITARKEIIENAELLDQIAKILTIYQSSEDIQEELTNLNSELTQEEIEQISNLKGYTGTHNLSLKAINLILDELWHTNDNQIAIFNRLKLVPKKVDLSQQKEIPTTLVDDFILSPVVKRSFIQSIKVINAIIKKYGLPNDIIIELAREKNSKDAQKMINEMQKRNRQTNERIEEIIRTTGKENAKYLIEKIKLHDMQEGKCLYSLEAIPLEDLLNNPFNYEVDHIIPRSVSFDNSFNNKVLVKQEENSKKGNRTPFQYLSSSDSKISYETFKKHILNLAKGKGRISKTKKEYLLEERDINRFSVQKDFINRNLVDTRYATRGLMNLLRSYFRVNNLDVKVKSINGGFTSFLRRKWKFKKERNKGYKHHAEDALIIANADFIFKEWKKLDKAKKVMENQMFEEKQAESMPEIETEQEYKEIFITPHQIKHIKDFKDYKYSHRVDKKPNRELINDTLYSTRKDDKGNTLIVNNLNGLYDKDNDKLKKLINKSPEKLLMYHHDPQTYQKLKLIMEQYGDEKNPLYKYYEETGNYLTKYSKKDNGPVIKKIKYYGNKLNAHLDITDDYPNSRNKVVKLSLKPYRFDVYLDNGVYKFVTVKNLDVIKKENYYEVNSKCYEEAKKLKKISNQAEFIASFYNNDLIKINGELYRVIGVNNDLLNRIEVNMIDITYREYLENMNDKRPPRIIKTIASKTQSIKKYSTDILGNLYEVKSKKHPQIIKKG
Protocol: as §7, §4, §5, §6

SpyCas9 [6] = target: T1, SpyCas9; test: Beacon DNA binding assay (Cas9 RNP binding to DNA substrate); parameters: species or system S. pyogenes
Protocol: To determine the mechanism of action of these peptide inhibitors, a binding assay was performed to determine if inhibitors are blocking Cas9 RNP binding to the DNA substrate. The beacon DNA binding assay was adapted and performed as described in Mekler V, Minakhin L, Semenova E, Kuznedelov K, Severinov K. 2016. Kinetics of the CRISPR-Cas9 effector complex assembly and the role of 3′-terminal segment of guide RNA. Nucleic Acids Res 44:2837-45. DNA probes were prepared from unmodified and chromophore-labeled DNA oligonucleotides synthesized by Integrated DNA Technologies. Equimolar amounts of synthetic complementary strands were mixed in a buffer containing 40 mM Tris, pH 7.9, 100 mM NaCl; heated for 2 min at 90° C. and slowly cooled to 20° C. The PAM-distal ends of the beacon target and non-target strands were labeled with fluorescein and Iowa Black® FQ, respectively. Both beacons mimic native target DNA and bind Cas9/sgRNA. The fluorescent signal is increased when Cas9 binds the DNA substrate and a helix forms with the target substrate strand and gRNA resulting in dissociation of oligo 3, leading to increase in fluorescent signal.
Data are the average ±SD of three replicate wells.

T1 sequence (Q99ZW2 whole entry): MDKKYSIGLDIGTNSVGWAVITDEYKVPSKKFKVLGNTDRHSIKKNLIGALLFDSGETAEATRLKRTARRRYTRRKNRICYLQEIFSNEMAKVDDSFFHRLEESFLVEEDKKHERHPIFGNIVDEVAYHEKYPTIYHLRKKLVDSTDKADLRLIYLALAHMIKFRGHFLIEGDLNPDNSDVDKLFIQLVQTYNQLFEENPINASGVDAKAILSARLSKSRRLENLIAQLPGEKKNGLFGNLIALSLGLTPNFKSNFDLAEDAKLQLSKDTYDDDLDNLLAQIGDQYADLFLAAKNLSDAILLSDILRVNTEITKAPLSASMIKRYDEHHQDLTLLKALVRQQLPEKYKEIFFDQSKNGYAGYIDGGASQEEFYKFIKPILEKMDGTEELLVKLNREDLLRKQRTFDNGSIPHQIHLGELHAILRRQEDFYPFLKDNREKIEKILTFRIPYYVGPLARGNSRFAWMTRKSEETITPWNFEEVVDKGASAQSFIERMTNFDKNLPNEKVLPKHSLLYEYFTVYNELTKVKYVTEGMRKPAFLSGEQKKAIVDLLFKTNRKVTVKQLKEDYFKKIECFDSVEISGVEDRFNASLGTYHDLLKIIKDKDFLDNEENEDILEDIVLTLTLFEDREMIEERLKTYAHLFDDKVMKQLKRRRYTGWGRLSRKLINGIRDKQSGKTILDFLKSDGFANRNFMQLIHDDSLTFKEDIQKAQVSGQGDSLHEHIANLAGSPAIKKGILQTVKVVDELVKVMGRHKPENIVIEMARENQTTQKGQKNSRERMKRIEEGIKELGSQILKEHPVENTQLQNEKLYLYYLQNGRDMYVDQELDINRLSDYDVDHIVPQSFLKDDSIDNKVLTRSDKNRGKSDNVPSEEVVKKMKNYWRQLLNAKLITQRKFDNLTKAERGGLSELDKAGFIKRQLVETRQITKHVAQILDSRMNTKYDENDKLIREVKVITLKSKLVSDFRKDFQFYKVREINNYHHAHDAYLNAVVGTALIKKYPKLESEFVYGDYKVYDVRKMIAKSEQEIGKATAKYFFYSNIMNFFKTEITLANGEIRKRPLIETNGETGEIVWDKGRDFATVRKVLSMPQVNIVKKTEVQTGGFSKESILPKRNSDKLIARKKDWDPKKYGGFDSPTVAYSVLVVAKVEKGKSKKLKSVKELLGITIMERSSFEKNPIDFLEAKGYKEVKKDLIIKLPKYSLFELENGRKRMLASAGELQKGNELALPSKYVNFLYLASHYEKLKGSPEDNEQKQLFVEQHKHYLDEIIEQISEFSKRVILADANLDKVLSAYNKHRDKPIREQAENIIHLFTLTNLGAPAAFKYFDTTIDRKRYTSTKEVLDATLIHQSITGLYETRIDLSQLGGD
T3 sequence (Q0P897 whole entry): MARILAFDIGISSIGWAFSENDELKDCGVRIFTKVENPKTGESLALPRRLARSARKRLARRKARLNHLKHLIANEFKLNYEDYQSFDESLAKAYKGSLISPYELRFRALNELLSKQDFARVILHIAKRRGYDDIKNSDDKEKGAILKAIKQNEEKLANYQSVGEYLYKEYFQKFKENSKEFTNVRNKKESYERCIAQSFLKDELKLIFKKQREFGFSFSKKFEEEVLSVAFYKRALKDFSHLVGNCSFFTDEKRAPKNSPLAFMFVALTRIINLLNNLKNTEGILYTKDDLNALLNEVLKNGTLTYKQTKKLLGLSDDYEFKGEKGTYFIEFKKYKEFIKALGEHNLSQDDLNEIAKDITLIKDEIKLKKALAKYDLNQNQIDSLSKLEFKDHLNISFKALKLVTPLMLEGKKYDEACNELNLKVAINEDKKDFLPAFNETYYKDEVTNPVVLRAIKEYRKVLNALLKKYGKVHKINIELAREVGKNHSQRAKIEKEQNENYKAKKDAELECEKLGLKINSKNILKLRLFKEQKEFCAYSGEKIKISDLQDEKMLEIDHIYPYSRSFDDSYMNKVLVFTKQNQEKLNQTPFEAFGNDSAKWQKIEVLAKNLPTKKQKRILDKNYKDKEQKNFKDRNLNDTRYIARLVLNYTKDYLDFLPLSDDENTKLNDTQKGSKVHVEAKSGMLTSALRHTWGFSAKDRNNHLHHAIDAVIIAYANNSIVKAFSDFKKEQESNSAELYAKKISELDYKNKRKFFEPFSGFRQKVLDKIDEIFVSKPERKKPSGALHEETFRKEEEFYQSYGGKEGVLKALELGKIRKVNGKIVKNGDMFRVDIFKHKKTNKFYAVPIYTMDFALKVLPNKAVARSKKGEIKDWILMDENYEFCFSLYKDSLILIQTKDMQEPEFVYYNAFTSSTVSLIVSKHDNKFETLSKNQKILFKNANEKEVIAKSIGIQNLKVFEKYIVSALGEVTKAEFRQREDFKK

Compound	pIC50 (SpyCas9 [1])	reduction of SpyCas9 editing (relative % CRISPR editing) (SpyCas9 [2])	cell toxicity (SpyCas9 [2])	activity against SpyCas9, SauCas9 and CjeCas9 (in words) (SpyCas9 [3])	pIC50 (SauCas9 [4])	pIC50 (CjeCas9)	further results
DRSHKILLRYNGCHYRLLQRSL [Peptide 90]	3.94	35±2.1%	without cell toxicity	–	–	–	–
VRVFSAYERLLIRRRRRRRRAG [Peptide 60-1-10]	4.57	–	–	particularly strong activity	4.56	4.52	–
NRSHKILLHYNGCHYRLFLRSL [Peptide 90-1-27]	4.55	–	–	particularly strong activity	4.35	4.23	–
VYDFYRMLSHFFLKGPSR [Peptide 91]	–	–	–	–	–	–	activity of SpyCas9 (% activity, FRET) (SpyCas9 [1]; peptide 100 μM): significantly reduced activity; activity of SpyCas9 (% activity, FRET) (SpyCas9 [1]; peptide 200 μM): significantly reduced activity; activity of SauCas9 (% activity, FRET) (SauCas9 [5]; peptide 100 μM): significantly reduced activity; activity of SauCas9 (% activity, FRET) (SauCas9 [5]; peptide 200 μM): significantly reduced activity; also recorded: reduced SauCas9 activity; mechanism subset: blocks Cas9 RNP binding to target DNA or other mechanism (SpyCas9 [6]): block Cas9 RNP binding to the target DNA; binding of SpyCas9 RNP to DNA substrate (beacon fluorescence) (SpyCas9 [6]; peptide 40 μM, SpyCas9 500 nM, DNA substrate 50 nM): unaltered; also recorded: did not reduce substrate binding
VCAFSADESLLIRRRHQRRRAG [Peptide 60]	4.04	30±2.3%	without cell toxicity	–	–	–	–
IAGFRREWFNQNTYFENWHADR [Peptide 15]	–	21±4.2%	without cell toxicity	–	–	–	–
KERRRSMMQLSVKSYTLFLGGT [Peptide 82-2-21]	4.50	–	–	particularly strong activity	4.39	4.29	–
CC[C@H](C)[C@H](NC(=O)[C@H](CCCNC(=N)N)NC(=O)[C@H](Cc1ccc(O)cc1)NC(=O)[C@H](Cc1ccc(O)cc1)NC(=O)[C@@H](N)CC(C)C)C(=O)N[C@@H](CCSC)C(=O)N[C@@H](CC(C)C)C(=O)N[C@@H](CO)C(=O)N[C@@H](CS)C(=O)N1CCC[C@H]1C(=O)N[C@@H](CCCCN)C(=O)N[C@@H](Cc1ccc(O)cc1)C(=O)N[C@@H](Cc1ccc(O)cc1)C(=O)N1CCC[C@H]1C(=O)N[C@@H](CS)C(=O)N[C@@H](CCC(=O)O)C(=O)N[C@@H](CC(C)C)C(=O)N[C@H](C(=O)NCC(=O)N[C@@H](Cc1c[nH]cn1)C(=O)N[C@H](C(=O)N[C@@H](CO)C(=O)O)[C@@H](C)O)C(C)C [Peptide 50] (H-LYYRIMLSCPKYYPCELVGHTS-OH)	3.84	30±1.4%	without cell toxicity	–	–	–	–
